Data: patent publication US8648176B2, “Engineered proteins with high affinity for DOTA chelates” (Massachusetts Institute of Technology, priority 2009, dated 2014)
Where “and” joins values, the source holds several entries; their conditions need not be identical. Identical values can stand only once.

Key:
[1] = test system: CEA-positive (LS174T) tumor; assay: Three-step PRIT (bsAb, dextran-DOTA-Y clearing agent, radiolabeled DOTA) biodistribution in xenograft mice; type: in vivo; conditions: for tumor uptake/activity, antigen-positive LS174T tumor: PRIT protocol with bsAb and dextran-DOTA-Y
Experimental: (§1) Radiolabeling. DOTA compounds were dissolved at 0.5 mM in ammonium acetate pH 5.6. 1-2 mCi ^177LuCl3 (PerkinElmer, Waltham, Mass.) or ^111InCl3 (Cardinal Health, Dublin, Ohio) were added to the metal chelate and incubated for 1-2 h at 85-95 C. The radiolabeled compounds were purified by RP-HPLC (Humblet et al., Contrast Media Mol. Imaging. 1:196-211, 2006; Misra et al., J. Nucl. Med. 48:1379-1389, 2007) with gamma detection on a 4.6×75 mm Symmetry C18 column using a linear gradient from 0% to 40% B over 15 minutes, at a flow rate of 1 mL/min, where A=10 mM TEAA and B=methanol. The purified compounds were dried under vacuum, resuspended in saline, and filter-sterilized.
(§2) Animal models. All animal handling was performed in accordance with BIDMC IACUC guidelines. Male NCRU-nu/nu mice were purchased from Taconic Farms (Germantown, N.Y.). For biodistribution and tumor uptake, 100-150 μCi ^177Lu- or ^111In-labeled hapten was injected intravenously into the mice. Blood was collected from the tail vein using micro-capillary tubes and counted on a model 1470 Wallac Wizard™ (Perkin Elmer, Wellesley, Mass.) 10-detector gamma counter. Mice were euthanized by intraperitoneal injection of pentobarbital followed by cervical dislocation, a method consistent with the recommendations of the Panel on Euthanasia of the American Veterinary Medical Association. Organs and tumors were resected, washed in PCS three times, weighed, and counted as described above.
We next tested a protocol involving all three reagents to determine the efficacy of our engineered PRIT system. […] After an additional 1 h, 100-150 μCi ^177Lu-DOTA was injected intravenously. At 4 h post-injection of radiolabeled DOTA, tumor uptake was 7.44+/−0.41% ID/g in the antigen-positive tumor, 84-fold higher than the tumor uptake observed for ^177Lu-DOTA alone. Activity was also higher in non-tumor tissue due to binding of ^177Lu-DOTA to residual bsAb in the extravascular compartment. Tumor uptake in the antigen-negative tumor was 9.82+/−0.35% ID/g at 4 h, similar to the antigen-positive tumor due to nonspecific uptake from enhanced permeability and retention (EPR) of the bsAb. […] The LS174T tumor to blood ratio increased from 18+/−2 at 4 h to 380+/−90 at 24 h and was greater than 450 at 48 h. […] The LS174T tumor to kidney ratio increased from approximately 8 at 4 h to about 20 at 24 and 48 h. SPECT/CT images confirmed the quantitative biodistribution data with high PSECT signal in the CEA-positive tumors, lower signal in the CEA-negative tumor and no observable signal in non-tumor tissue.
The pretargeted protocol described above was used to analyze the effect of affinity on the tumor uptake of radiolabeled DOTA. […] The 24 h organ/tissue biodistribution was determined in tumor-bearing mice with each of the four radiolabeled DOTA compounds. […] The activity in the C6 antigen-negative tumor increased with affinity, presumably due to nonspecific uptake of bsAb. The activity in the non-tumor tissues is also higher for the higher affinity compounds due to the higher affinity binding to residual bsAb.

CEA-negative (C6) tumor = assay: as above; type: in vivo; conditions: PRIT protocol
Experimental: as §1, §2
We next tested a protocol involving all three reagents to determine the efficacy of our engineered PRIT system. […] After an additional 1 h, 100-150 μCi ^177Lu-DOTA was injected intravenously. At 4 h post-injection of radiolabeled DOTA, tumor uptake was 7.44+/−0.41% ID/g in the antigen-positive tumor, 84-fold higher than the tumor uptake observed for ^177Lu-DOTA alone. […] SPECT/CT images confirmed the quantitative biodistribution data with high PSECT signal in the CEA-positive tumors, lower signal in the CEA-negative tumor and no observable signal in non-tumor tissue.

[2] = MIRD dosimetry estimate from PRIT mouse biodistribution; type: in vivo; conditions: 70 kg man
Experimental: Dosimetry. Radiation doses absorbed by normal tissues other than the red marrow were calculated according to the MIRD scheme. Percent injected activity in tumor, kidneys, liver, blood, and whole-body were calculated from activity measurements. The activity at time 0 was assumed to be 4% ID/g in the kidney and liver, 50% ID/g in the blood, 0% ID/g in the tumor and 100% in the whole-body. Isotope decay-adjusted activity was integrated over time, with a conservative assumption that the 48 h organ % ID remained constant thereafter. S values for ^90Y and ^177Lu were used to calculate dosimetry estimates in an adult male reference (Stabin and Siegel, Health Phys. 85:294-310, 2003). The red marrow dose was calculated as described (Wessels et al., J. Nucl. Med. 45:1725-1733, 2004) from blood activity measurements. […] Tumor doses were calculated from self-dose only using S-factors for a unit density sphere of size 500 g (the average LS174T tumor size scaled by 2000).
From the PRIT organ biodistribution data, the radiation dose to the kidney, liver, red marrow, and antigen-positive tumor was estimated for a 70 kg person for ^90Y and ^177Lu. […] The estimated doses to the kidney, liver, and red marrow were calculated from both the self-dose and cross-dose, wherein the whole-body activity was used to determine the cross-dose. The estimated dose to the tumor was determined from self-dose only. […]

[3] = Organ uptake of DOTA-based compounds in normal CD1 mice; type: in vivo; conditions: 4 h p.i., compared to radiolabeled DOTA-biotin and DOTA-Bn
DOTA-Bn-biotin-Y [4] = assay: KD by titration of yeast surface-displayed scFv, flow cytometry; type: binding; conditions: hapten DOTA-Bn-Biotin, metal Y, 37° C., mean ± SD
Experimental: Briefly, yeast expressing an scFv clone on their surface were grown, washed with PBSA and incubated with various concentrations of DOTA-Bn-biotin-metal long enough to allow for at least a 95% approach to equilibrium. Generally, 5×10^5 induced cells were used for each concentration point. When antigen concentrations less than 10 pM were assayed, the titration was performed with 2.5×10^4 induced and 7.5×10^5 non-induced cells to ensure antigen excess over the scFv without requiring impractically large volumes. The addition of non-induced cells aids pelleting during centrifugation (Hackel et al., J. Mol. Biol. 381:1238-1252, 2008). When antigen concentrations greater than 100 nM were used, non-specific antigen binding to the yeast surface was taken into account. Yeast expressing an irrelevant scFv on their surface were treated in the same manner as the yeast displaying the scFv of interest, and mean total phycoeryhthrein fluorescence (MFUtot) due to non-specific binding was measured by flow cytometry and averaged over three replicates. This value was subtracted from the MFUtot for the yeast of interest, and the data was fit by least-squares regression.

DOTA-Bn-biotin-Y [5] = assay: Dissociation kinetics, yeast surface-displayed scFv; type: binding
Experimental: Dissociation Kinetics. To determine the dissociation rate, koff, for DOTA-Bn-biotin complexes, cells were induced and washed as above, and 1×10^7 cells were incubated in 1 mL PBSA with 1 nM DOTA-Bn-biotin-metal for 1 h to reach saturation. Subsequently, the yeast were washed with 1 mL PBSA, resuspended in 1 mL PBSA with 1 μM (excess) non-biotinylated antigen as competitor and split into 100 μL aliquots. These aliquots were incubated at 37° C. for different lengths of time, then washed with cold PBSA and left on ice. All samples were simultaneously stained with streptavidin-phycoerythrein for 10-20 min and analyzed by flow cytometry. The data was fit to the following equation by least squares regression, varying MFUmin, MFUrange and koff: MFUtot=MFUmin+MFUrangee^−k^off^t For nonbiotinylated antigens, the procedure was identical except that initial saturation was with the nonbiotinylated antigen and DOTA-Bn-biotin-metal was used as competitor. The data followed the expression MFUtot=MFUmin+MFUrange(1−e^−k^off^t)

DOTA-Bn-Ga = assay: KD by competition with DOTA-Bn-biotin-Y, yeast surface-displayed scFv; type: binding; conditions: hapten DOTA-Bn, metal Ga; mean ± SD
Experimental: (§3) KD Measurements for DOTA-metal and DOTA-Bn-metal. To determine the KD for scFv binding to nonbiotinylated haptens, the above protocol was modified to a competition-based assay as follows. […] Incubation, staining, and flow cytometry analysis was the same as that for biotinylated antigen. MFUtot as a function of the concentration of the nonbiotinylated antigen ([Ag]), a normalization constant (MFUrange), the minimal total mean fluorescence (MFUmin), the KD for DOTA-Bn-biotin-Y (KD, biot), DOTA-Bn-biotin-Y concentration ([Agbiot]), and the KD for the antigen of interest (KD) follows this modified equation:
(§4) [formula] The data was fit by least squares regression as before, varying MFUmin, MFUrange and KD.

DOTA-Bn-Gd = assay: as above; type: binding; conditions: hapten DOTA-Bn, metal Gd; mean ± SD
Experimental: as §3, §4

DOTA-Bn-In = assay: as above; type: binding; conditions: hapten DOTA-Bn, metal In; mean ± SD
Experimental: as §3, §4

DOTA-Bn-Lu = assay: as above; type: binding; conditions: hapten DOTA-Bn, metal Lu; mean ± SD
Experimental: as §3, §4

DOTA-Bn-Y = assay: as above; type: binding; conditions: hapten DOTA-Bn, metal Y; mean ± SD
Experimental: as §3, §4

DOTA-Ga = assay: as above; type: binding; conditions: hapten DOTA, metal Ga; mean ± SD
Experimental: as §3, §4

DOTA-Gd = assay: as above; type: binding; conditions: hapten DOTA, metal Gd; mean ± SD
Experimental: as §3, §4

DOTA-In = assay: as above; type: binding; conditions: hapten DOTA, metal In; mean ± SD
Experimental: as §3, §4

DOTA-Lu = assay: as above; type: binding; conditions: hapten DOTA, metal Lu; mean ± SD
Experimental: as §3, §4

DOTA-Y = assay: as above; type: binding; conditions: hapten DOTA, metal Y; mean ± SD
Experimental: as §3, §4

**Q.** What does the source list for `O=C([O-])CN1CCN(CC(=O)[O-])CCN(CC(=O)[O-])CCN(CC(=O)[O-])CC1.[177Lu+3].[H+]` [^177Lu-DOTA]?
**A.** LS174T tumor to blood ratio ([1]; 4 h, PRIT protocol): 18+/−2; LS174T tumor to kidney ratio ([1]; 4 h, PRIT protocol): approximately 8; tumor uptake relative to hapten alone ([1]; 4 h, antigen-positive tumor, versus ^177Lu-DOTA alone): 84 fold; tumor uptake, antigen-positive tumor ([1]; 4 h post-injection of radiolabeled DOTA, 500 μg bsAb, 250 μg dextran-DOTA-Y 24 h later, hapten 1 h later): 7.44+/−0.41 % ID/g; tumor uptake/activity, antigen-positive LS174T tumor ([1]; 24 h): ~14 % ID/g and 14.3+/−1.8 % ID/g; tumor uptake relative to hapten of ~1 nM affinity ([1]; 24 hours, affinity ~100 pM versus ~1 nM): 8 fold; tumor uptake relative to hapten of ~10 nM affinity ([1]; 24 hours, affinity ~100 pM versus ~10 nM): 28 fold; blood activity ([1]; 48 h, PRIT protocol): not measurable above background; tumor uptake, antigen-negative tumor (CEA-negative (C6) tumor; 4 h): 9.82+/−0.35 % ID/g; tumor activity, antigen-negative tumor (CEA-negative (C6) tumor; 24 h): 4.23+/−0.54 % ID/g; tumor activity, antigen-negative tumor (CEA-negative (C6) tumor; 48 h): 2.89+/−2.28 % ID/g; estimated dose to the tumor ([2]; at a red marrow dose of 1.5 Gy, estimated from mouse biodistribution, self-dose only): 156 Gy; dose-limiting organ ([2]; predicted from radiation dose estimates): red marrow; liver and intestine uptake [3]: slightly lower

**Q.** For `O=C([O-])CN1CCN(CC(=O)[O-])CCN(CC(=O)[O-])CCN(CC(=O)[O-])CC1.[111In+3]` [^111In-DOTA], which “LS174T tumor to kidney ratio” value ([1]; 24 h, PRIT protocol) is on record?
**A.** Its value is 1.2+/−0.4.

**Q.** And the “tumor uptake/activity, antigen-positive LS174T tumor” value ([1]; 24 h)?
**A.** The value was 0.5+/−0.1 % ID/g.

B1: 2D12.5ds: original 2D12.5 scFv with the addition of the intramolecular disulfide bond and removed glycosylation site (SEQ ID NO:2) (protein)
scFv: QVKLQESGPGLVQPSQSLSITCTVSGFSLTDYGVHWVRQSPGKGLEWLGVIWSGGGTAYTAAFISRLNIYKDNSKNQVFFEMNSLQAEDTAMYYCARRGSYPYNYFDVWGCGTTVTVSSGGGGSGGGGSGGGGSQAVVTQESALTTSPGETVTLTCRSSTGAVTTSNYANWVQEKPDHCFTGLIGGNNNRPPGVPARFSGSLIGDKAALTIAGTQTEDEAIYFCALWYSNHWVFGGGTRLTVLG
**Q.** Which Kd (DOTA-Bn-biotin-Y [4]) does the source give for B1 here?
**A.** Its Kd is 3.7 ± 3.6 nM.

**Q.** And the dissociation half-time (DOTA-Bn-biotin-Y [5])?
**A.** Its dissociation half-time is 5.5 min.

B2: C8.2.5: high-affinity disulfide-stabilized DOTA-binding scFv affinity matured from 2D12.5; residues 1-244 are SEQ ID NO:12 (protein)
scFv: HVKLQESGPGLVQPSQSLSLTCTVSGFSLTDYGVHWVRQSPGKGLEWLGVIWSGGGTAYNTALISRLNIYRDNSKNQVFLEMNSLQAEDTAMYYCARRGSYPYNYFDAWGCGTTVTVSSGGGGSGGGGSGGGGSQAVVIQESALTTPPGETVTLTCGSSTGAVTASNYANWVQEKPDHCFTGLIGGHNNRPPGVPARFSGSLIGDKAALTIAGTQTEDEAIYFCALWYSDHWVIGGGTRLTVLGGSEQKLISEEDL
**Q.** Which results are given for B2?
**A.** Kd (DOTA-Bn-biotin-Y [4]): 0.0082 ± 0.0019 nM; Kd (DOTA-Bn-Ga): 52 ± 12 nM; Kd (DOTA-Bn-Gd): 0.034 ± 0.0053 nM; Kd (DOTA-Bn-In): 1.01 ± 0.04 nM; Kd (DOTA-Bn-Lu): 0.0108 ± 0.0025 nM; Kd (DOTA-Bn-Y): 0.0154 ± 0.002 nM; Kd (DOTA-Ga): 216 ± 26 nM; Kd (DOTA-Gd): 0.149 ± 0.006 nM; Kd (DOTA-In): 23.7 ± 3.7 nM; Kd (DOTA-Lu): 0.39 ± 0.014 nM; Kd (DOTA-Y): 0.103 ± 0.035 nM; dissociation half-time (DOTA-Bn-biotin-Y [5]): over 5 hours
